# According to paper PMC4677984, “Activation of Muscarinic M1 Acetylcholine Receptors Induces Long-Term Potentiation in the Hippocampus” (Cerebral Cortex (New York, NY), 2015):
# Legend:
# [1] = molecular target: mouse native M1Rs (Mus musculus, UniProt P12657); experiment: biochemical
# Description: (§1) All procedures were performed at 4°C. […] Homogenate was centrifuged at 1000×g for 10 min and supernatant collected, the pellet was rehomogenized and centrifuged again, as above, and supernatant pooled and centrifuged at 11 000×g for 20 min. The resulting pellet was suspended in a final storage buffer (10 mM HEPES, 1 mM EGTA, 1 mM MgCl2, 1 mM DTT; pH 7.4) and centrifuged at 27 000×g for 20 min. Supernatant was removed and the final pellet suspended in 2 mL of final storage buffer. Protein concentration was measured using the Bradford method ([Bradford 1976]) (Coomassie Plus, Bio-Rad protein assay kit) with bovine gamma globulin standards. Samples were then aliquoted and stored at −80°C.
# (§2) GTPɣ[^35S] binding in mouse WT and M1 KO hippocampal membranes were determined in triplicate using an antibody capture technique in 96-well plate format ([DeLapp et al. 1999]). Membrane aliquots (15 µg/well) from WT or M1 KO C57BL6/NTac mice were incubated with test compound and GTPɣ[^35S] (500 pM/well) for 30 min. […] Plates were left to incubate for 3 h and then centrifuged for 10 min at 2000 rpm. Plates were counted for 1 min/well using a Wallac MicroBeta Trilux scintillation counter (PerkinElmer). All incubations took place at room temperature in GTP-binding assay buffer (In mM, 20 HEPES, 100 NaCl, 5 MgCl2; pH 7.4).
# (§3) For data analysis, relative EC50 and IC50 values were calculated using a 4-parameter logistic curve (GraphPad Prism v6).
# [2] = tested on: Gαq activation in M1 KO hippocampal membranes
# Description: as §1
# as §2, with “All incubations took place at room temperature in GTP-binding assay buffer (In mM, 20 HEPES, 100 NaCl, 5 MgCl2; pH 7.4).” left out
# as §3
# [3] = tested on: CA1 pyramidal neurons (M1R KO); conditions: 7 µM, M1R KO mice
# [4] = tested on: 5-HT2B receptors; conditions: ref Melancon et al. 2013; cited from earlier work
# [5] = tested on: CA1 pyramidal neurons (M1R KO); conditions: 7 µM, M1R KO mice; remark: listed apart in the source
# [6] = tested on: CA1 pyramidal neurons; conditions: 7 µM, WT mice 6-9 weeks
# [7] = tested on: CA1 pyramidal neurons; conditions: 7 µM, WT mice, NBQX + L-689,560, -55 mV
# [8] = tested on: CA1 pyramidal neurons
# [9] = molecular target: T1, human M2 receptors (Homo sapiens, UniProt P08172); experiment: cell-based
# Description: (§4) CHO cells stably expressing recombinant human M1, M3, and M5 Rs and AV12 cells stably expressing Gα15 and recombinant human M2 or M4 Rs were cultured in DMEM with high glucose and pyridoxine hydrochloride supplemented with 5–10% heat-inactivated fetal bovine serum, 10–20 mM HEPES, 1 mM L-glutamine, 1% penicillin/streptomycin solution and selection agents, 0.5 mg/mL geneticin, or 0.3 µg/mL puromycin. Confluent cultures were passaged weekly and cells harvested 24 h prior to assay using 0.25% trypsin–EDTA and plated at a density of 40 000–50 000 cells per well in tissue culture treated, poly-D-lysine-coated 96-well black-walled, clear bottom plates (Corning or Becton-Dickinson). For FLIPR (FLIPR-tetra, Molecular Devices) assays, media was removed and cells were incubated with 5 µM Fluo-4-AM/0.05% pluronic F-127 (Invitrogen) in a HEPES-buffered salt solution (HEPES-HBSS; composition, in mM; 135 NaCl, 5 KCl, 1.3 CaCl2, 0.5 MgCl2, 0.4 MgSO4, 0.4 KH2PO4, 4.2 NaHCO3, 0.3 Na2HPO4, 5.6 glucose, 20 HEPES, +2.5 mM probenecid for CHO cell lines, pH 7.5 adjusted with 5 M NaOH) for 1 h at room temperature, in the dark, before the media was removed and replaced with HEPES-buffered salt solution in the absence of Fluo-4. Probenecid was included to optimize dye loading in CHO cell lines. Although probenecid has been reported to interact and activate some TRP channels {McClenaghan, 2012 #2996}, there are no reports of interactions with mAChRs or nontransfected CHO cells. Plates were then transferred to FLIPR for experiments, which were also conducted at room temperature.
# as §3
# [10] = molecular target: T2, human M4 receptors (Homo sapiens, UniProt P08173); experiment: cell-based
# Description: as §4, §3
# [11] = molecular target: T3, human M5 receptors (Homo sapiens, UniProt P08912); experiment: cell-based
# Description: as §4, §3
# [12] = tested on: dopamine D2 receptors; conditions: ref Melancon et al. 2013; cited from earlier work
# [13] = molecular target: T1, human M2 receptors; conditions: over the concentration range tested
# Description: as §4, §3
# [14] = molecular target: human M3 receptors (Homo sapiens, UniProt P20309); conditions: over the concentration range tested
# Description: as §4, §3
# [15] = molecular target: T2, human M4 receptors; conditions: over the concentration range tested
# Description: as §4, §3
# [16] = molecular target: T3, human M5 receptors; conditions: over the concentration range tested
# Description: as §4, §3
# [17] = molecular target: human M1Rs (Homo sapiens, UniProt P11229); experiment: cell-based
# Description: CHO cells stably expressing recombinant human M1, M3, and M5 Rs and AV12 cells stably expressing Gα15 and recombinant human M2 or M4 Rs were cultured in DMEM with high glucose and pyridoxine hydrochloride supplemented with 5–10% heat-inactivated fetal bovine serum, 10–20 mM HEPES, 1 mM L-glutamine, 1% penicillin/streptomycin solution and selection agents, 0.5 mg/mL geneticin, or 0.3 µg/mL puromycin. Confluent cultures were passaged weekly and cells harvested 24 h prior to assay using 0.25% trypsin–EDTA and plated at a density of 40 000–50 000 cells per well in tissue culture treated, poly-D-lysine-coated 96-well black-walled, clear bottom plates (Corning or Becton-Dickinson). For FLIPR (FLIPR-tetra, Molecular Devices) assays, media was removed and cells were incubated with 5 µM Fluo-4-AM/0.05% pluronic F-127 (Invitrogen) in a HEPES-buffered salt solution (HEPES-HBSS; composition, in mM; 135 NaCl, 5 KCl, 1.3 CaCl2, 0.5 MgCl2, 0.4 MgSO4, 0.4 KH2PO4, 4.2 NaHCO3, 0.3 Na2HPO4, 5.6 glucose, 20 HEPES, +2.5 mM probenecid for CHO cell lines, pH 7.5 adjusted with 5 M NaOH) for 1 h at room temperature, in the dark, before the media was removed and replaced with HEPES-buffered salt solution in the absence of Fluo-4. […]
# [18] = tested on: CA1 pyramidal cell firing; conditions: studies not reported here; reversed by scopolamine
# [19] = tested on: cognition; conditions: clinical study; ref Nathan et al. 2013; cited from earlier work
# Sequence of mouse native M1Rs (P12657 whole entry): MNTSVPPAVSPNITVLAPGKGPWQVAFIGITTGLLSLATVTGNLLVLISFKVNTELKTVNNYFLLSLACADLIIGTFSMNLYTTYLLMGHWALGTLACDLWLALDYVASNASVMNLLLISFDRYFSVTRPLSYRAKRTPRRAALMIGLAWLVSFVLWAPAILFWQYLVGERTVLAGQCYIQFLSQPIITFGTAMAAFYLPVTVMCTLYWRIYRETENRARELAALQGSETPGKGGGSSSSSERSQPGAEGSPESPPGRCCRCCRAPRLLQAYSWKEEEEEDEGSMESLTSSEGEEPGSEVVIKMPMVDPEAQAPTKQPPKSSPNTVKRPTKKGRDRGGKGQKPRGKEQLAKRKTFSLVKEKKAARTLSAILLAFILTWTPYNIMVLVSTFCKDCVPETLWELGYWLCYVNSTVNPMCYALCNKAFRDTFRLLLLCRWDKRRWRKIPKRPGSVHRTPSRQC
# Sequence of human M1Rs (P11229 whole entry): as the sequence (P12657 whole entry) above, with V5A, S254T, K320R, G337A, V413I counted along it
# T2 sequence (P08173 whole entry): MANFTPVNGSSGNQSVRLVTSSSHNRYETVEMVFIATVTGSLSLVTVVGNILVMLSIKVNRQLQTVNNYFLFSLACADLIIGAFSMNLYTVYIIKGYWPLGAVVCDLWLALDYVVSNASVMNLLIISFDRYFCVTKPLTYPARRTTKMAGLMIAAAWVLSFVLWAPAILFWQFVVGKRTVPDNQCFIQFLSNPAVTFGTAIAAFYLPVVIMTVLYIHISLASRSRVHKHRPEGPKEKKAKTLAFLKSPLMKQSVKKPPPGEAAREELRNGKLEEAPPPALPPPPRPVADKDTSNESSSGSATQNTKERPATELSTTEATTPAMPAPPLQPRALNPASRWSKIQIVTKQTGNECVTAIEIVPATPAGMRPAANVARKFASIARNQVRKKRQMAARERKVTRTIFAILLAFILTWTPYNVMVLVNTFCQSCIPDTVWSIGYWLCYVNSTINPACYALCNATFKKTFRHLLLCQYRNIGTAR
# T1 sequence (P08172 whole entry): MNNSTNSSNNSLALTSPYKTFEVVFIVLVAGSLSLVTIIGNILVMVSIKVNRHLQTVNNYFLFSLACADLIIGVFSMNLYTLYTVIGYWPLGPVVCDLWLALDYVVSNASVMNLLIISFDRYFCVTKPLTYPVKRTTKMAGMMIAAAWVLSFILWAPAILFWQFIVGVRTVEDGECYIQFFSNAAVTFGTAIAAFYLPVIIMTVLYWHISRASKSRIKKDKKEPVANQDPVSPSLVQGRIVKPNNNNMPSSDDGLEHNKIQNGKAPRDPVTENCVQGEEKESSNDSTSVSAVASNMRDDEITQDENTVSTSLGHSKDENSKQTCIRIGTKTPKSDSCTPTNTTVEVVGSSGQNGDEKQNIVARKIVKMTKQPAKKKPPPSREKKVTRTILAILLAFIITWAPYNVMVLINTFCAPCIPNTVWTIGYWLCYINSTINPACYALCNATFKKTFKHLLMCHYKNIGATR
# T3 sequence (P08912 whole entry): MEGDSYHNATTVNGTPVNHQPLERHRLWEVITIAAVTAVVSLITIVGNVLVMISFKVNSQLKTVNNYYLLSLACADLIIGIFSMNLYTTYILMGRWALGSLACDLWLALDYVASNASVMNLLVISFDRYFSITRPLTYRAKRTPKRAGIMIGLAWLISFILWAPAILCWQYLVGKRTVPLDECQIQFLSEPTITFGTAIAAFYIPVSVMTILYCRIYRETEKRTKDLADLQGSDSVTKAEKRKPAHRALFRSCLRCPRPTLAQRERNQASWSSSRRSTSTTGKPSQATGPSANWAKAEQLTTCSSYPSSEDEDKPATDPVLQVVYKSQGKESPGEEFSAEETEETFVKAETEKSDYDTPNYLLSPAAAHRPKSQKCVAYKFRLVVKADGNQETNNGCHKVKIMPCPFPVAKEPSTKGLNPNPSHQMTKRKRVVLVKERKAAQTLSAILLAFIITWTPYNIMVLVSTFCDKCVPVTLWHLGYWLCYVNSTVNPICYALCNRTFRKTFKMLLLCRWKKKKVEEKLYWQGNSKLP
# Sequence of human M3 receptors (P20309 whole entry): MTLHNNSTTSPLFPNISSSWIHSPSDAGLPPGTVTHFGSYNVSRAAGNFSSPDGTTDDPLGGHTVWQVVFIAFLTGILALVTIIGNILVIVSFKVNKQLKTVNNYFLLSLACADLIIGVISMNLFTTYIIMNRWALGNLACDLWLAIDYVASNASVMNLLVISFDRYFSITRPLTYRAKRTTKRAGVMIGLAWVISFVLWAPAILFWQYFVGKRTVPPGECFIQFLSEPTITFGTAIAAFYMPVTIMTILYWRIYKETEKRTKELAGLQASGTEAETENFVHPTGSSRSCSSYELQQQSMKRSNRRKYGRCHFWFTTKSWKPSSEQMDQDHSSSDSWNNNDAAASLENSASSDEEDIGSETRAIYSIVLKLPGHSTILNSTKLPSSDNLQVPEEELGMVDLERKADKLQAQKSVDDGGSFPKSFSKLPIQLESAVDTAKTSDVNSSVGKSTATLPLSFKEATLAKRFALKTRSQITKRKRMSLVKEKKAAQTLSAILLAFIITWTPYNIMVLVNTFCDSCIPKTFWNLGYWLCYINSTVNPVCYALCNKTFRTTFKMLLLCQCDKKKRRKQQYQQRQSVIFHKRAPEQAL
molecule,measurement,setting,value
oxotremorine M,Emax for Gαq activation,"[1]; WT hippocampus, percentage of maximal signal with 100 µM oxo-M",99 ± 5%
same,Gαq activation response in M1R KO mice,[2],No response
"CCCCC1CCN(CCCN2C(=O)CCc3ccccc32)CC1 [77-LH-28-1, 1-[3-(4-butyl-1-piperidinyl)propyl]-3,4-dihydro-2[1H]-quinolinone]",IPSP amplitude,[3],64.0 ± 13.3%
same,cross-reactivity at 5-HT2B receptors,[4],some cross-reactivity
same,EPSP amplitude,[5],118.5 ± 24.7%
same,depolarization of CA1 pyramidal neurons,[6],10.4 ± 3.9 mV
same,increase in input resistance,[6],86 ± 51 MΩ
same,IPSP amplitude,[7],39.1 ± 9.2%
same,EPSP amplitude,[8],194.2 ± 42.0%
same,IC50,[9],1190 nM
same,IC50,[10],2030 nM
same,IC50,[11],2220 nM
same,cross-reactivity at dopamine D2 receptors,[12],some cross-reactivity
same,EC50,[1],156 nM
same,Emax,[1]; read-out: Emax for Gαq activation,92 ± 2%
same,agonism of M2 receptors,[13],No agonism
same,agonism of M3 receptors,[14],No agonism
same,agonism of M4 receptors,[15],No agonism
same,agonism of M5 receptors,[16],No agonism
same,EC50,[17],22.2 nM
same,Emax,[17]; read-out: efficacy (Emax),98 ± 2%
same,Gαq activation response in M1R KO mice,[2],no response
Cc1cc(F)c2[nH]c(=O)n(C3CCN(C4CCOCC4)CC3)c2c1 [GSK1034702],CA1 pyramidal cell firing in vivo,[18],increase in CA1 pyramidal cell firing
same,effects on cognition,[19],positive effects on cognition
